Legend:
Settings in all cases: compound at 10 μM
Human δ-opioid (DOP) = molecular target: T1, Human δ-opioid (DOP) (Homo sapiens, UniProt P41143); assay: Radioligand binding, human δ-opioid (DOP) membranes, FlashPlate, [3H]-Bremazocine
T1 construct: purchased Perkin Elmer Biosignal
Outline: (§1)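 Cloned human receptor membranes were coated onto FlashPlate wells and incubated with radioligand and compound (added from a 0.5 mM DMSO daughter plate) for 1 hour at room temperature in the dark. Scintillation counting gave percent inhibition, with DMSO defining total and reference ligand defining non-specific binding.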

Human κ-Opioid (KOP) = molecular target: T2, Human κ-Opioid (KOP) (Homo sapiens, UniProt P41145); assay: Radioligand binding, human κ-opioid (KOP) membranes, filtration, [3H]-Diprenorphine
T2 construct: purchased Perkin Elmer Biosignal
T2 sequence (P41145 whole entry): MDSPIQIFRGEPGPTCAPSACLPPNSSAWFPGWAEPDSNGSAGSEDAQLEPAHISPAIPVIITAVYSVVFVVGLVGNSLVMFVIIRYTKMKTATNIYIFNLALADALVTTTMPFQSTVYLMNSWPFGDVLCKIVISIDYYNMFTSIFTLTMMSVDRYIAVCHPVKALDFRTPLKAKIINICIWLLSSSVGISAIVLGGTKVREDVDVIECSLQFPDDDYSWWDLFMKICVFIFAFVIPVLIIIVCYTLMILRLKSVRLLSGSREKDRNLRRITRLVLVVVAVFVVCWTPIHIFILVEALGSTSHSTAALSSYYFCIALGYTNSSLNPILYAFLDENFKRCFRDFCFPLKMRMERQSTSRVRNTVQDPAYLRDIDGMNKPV
Outline: (§2)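 Filtration binding on cloned human receptor membranes (1 Unit/well), [125I]-Substance P for NK1 and [3H]-Diprenorphine for KOP, 1 h at room temperature. Filters PEI-presoaked, washed with cold 50 mM Tris-HCl pH 7.4, counted by scintillation; percent inhibition calculated, reference ligand defining non-specific binding.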

Human Melanocortin (MC3) = molecular target: T3, Human Melanocortin (MC3) (Homo sapiens, UniProt P41968); assay: Radioligand binding, human melanocortin MC3 membranes, FlashPlate, [125I]-NDP-αMSH
T3 construct: purchased Perkin Elmer Biosignal
T3 sequence (P41968 whole entry): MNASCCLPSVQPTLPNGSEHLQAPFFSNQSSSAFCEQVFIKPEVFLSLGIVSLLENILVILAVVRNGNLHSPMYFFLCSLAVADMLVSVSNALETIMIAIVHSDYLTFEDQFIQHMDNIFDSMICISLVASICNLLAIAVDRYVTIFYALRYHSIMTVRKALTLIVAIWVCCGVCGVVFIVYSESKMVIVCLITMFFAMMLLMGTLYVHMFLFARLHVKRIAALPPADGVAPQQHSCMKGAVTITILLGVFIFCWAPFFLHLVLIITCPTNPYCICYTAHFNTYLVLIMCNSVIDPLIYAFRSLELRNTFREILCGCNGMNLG
Outline: as §1

Human Melanocortin (MC4) = molecular target: T4, Human Melanocortin (MC4) (Homo sapiens, UniProt P32245); assay: Radioligand binding, human melanocortin MC4 membranes, FlashPlate, [125I]-NDP-αMSH
T4 construct: purchased Perkin Elmer Biosignal
T4 sequence (P32245 whole entry): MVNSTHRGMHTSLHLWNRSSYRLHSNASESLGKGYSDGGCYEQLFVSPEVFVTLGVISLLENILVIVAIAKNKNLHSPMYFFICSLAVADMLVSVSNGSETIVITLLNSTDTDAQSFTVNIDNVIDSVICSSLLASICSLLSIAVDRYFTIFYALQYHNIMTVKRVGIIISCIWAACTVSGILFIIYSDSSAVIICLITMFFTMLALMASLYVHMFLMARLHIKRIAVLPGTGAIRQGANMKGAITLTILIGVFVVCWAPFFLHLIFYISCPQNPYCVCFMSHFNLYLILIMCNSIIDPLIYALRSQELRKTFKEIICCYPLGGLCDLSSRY
Outline: as §1

Human melanocortin (MC5) = molecular target: T5, Human melanocortin (MC5) (Homo sapiens, UniProt P33032); assay: Radioligand binding, human melanocortin MC5 membranes, FlashPlate, [125I]-NDP-αMSH
T5 construct: purchased Perkin Elmer Biosignal
T5 sequence (P33032 whole entry): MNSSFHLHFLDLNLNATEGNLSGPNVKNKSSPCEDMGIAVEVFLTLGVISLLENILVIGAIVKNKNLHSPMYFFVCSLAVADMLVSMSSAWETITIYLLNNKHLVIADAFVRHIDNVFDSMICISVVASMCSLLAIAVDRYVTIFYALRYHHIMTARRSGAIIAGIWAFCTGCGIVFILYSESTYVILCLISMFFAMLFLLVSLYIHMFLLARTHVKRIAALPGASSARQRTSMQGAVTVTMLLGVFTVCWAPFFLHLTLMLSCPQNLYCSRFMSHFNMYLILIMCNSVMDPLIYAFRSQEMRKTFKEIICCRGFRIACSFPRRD
Outline: as §1

[1] = molecular target: T6, Human melanin-concentrating hormone (MCH1) (Homo sapiens, UniProt Q99705); assay: Radioligand binding, human melanin-concentrating hormone MCH1 membranes, FlashPlate, [125I]-S36057
T6 construct: purchased Perkin Elmer Biosignal
T6 sequence (Q99705 whole entry): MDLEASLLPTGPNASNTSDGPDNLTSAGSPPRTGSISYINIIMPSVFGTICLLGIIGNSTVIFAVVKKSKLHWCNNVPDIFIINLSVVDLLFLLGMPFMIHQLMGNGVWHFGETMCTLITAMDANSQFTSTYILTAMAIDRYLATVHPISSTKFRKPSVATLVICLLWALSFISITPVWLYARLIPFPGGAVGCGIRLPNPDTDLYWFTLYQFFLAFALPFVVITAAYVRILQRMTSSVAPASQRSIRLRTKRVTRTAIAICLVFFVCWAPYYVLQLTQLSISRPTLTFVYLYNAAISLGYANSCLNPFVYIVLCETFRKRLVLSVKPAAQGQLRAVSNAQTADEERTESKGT
Outline: as §1

Human μ-opioid (MOP) = molecular target: T7, Human μ-opioid (MOP) (Homo sapiens, UniProt P35372); assay: Radioligand binding, human μ-opioid (MOP) membranes, FlashPlate, [3H]-Naloxone
T7 construct: purchased Perkin Elmer Biosignal
T7 sequence (P35372 whole entry): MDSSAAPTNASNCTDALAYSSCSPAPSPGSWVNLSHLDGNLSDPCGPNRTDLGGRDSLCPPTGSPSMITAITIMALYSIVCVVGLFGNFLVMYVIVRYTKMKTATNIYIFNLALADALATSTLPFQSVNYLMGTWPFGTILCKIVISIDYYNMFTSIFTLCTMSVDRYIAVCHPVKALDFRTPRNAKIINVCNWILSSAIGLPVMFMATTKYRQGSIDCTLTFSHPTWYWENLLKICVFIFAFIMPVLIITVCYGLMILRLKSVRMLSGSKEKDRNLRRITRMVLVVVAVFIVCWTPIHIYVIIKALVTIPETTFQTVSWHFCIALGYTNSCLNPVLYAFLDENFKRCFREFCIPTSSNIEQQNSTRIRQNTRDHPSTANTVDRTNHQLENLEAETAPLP
Outline: as §1

Human neurokinin (NK1) = molecular target: T8, Human neurokinin (NK1) (Homo sapiens, UniProt P25103); assay: Radioligand binding, human neurokinin NK1 membranes, filtration, [125I]-Substance P
T8 construct: purchased Perkin Elmer Biosignal
T8 sequence (P25103 whole entry): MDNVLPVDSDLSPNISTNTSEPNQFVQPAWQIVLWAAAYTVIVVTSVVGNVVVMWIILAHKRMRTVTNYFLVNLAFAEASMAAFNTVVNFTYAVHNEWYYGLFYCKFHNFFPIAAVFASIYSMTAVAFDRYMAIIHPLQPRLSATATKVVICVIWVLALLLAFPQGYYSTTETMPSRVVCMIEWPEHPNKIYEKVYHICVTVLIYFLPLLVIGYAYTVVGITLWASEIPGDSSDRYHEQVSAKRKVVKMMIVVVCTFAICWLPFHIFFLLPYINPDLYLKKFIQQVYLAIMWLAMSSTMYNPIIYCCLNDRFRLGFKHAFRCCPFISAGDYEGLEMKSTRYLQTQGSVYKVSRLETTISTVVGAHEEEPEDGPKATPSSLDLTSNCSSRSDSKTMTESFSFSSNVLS
Outline: as §2

[2] = molecular target: T9, Human neuropeptide Y (NPY-Y1) (Homo sapiens, UniProt P25929); assay: Radioligand binding, human neuropeptide Y NPY-Y1 membranes, FlashPlate, [125I]-PYY
T9 construct: purchased Perkin Elmer Biosignal
T9 sequence (P25929 1-384): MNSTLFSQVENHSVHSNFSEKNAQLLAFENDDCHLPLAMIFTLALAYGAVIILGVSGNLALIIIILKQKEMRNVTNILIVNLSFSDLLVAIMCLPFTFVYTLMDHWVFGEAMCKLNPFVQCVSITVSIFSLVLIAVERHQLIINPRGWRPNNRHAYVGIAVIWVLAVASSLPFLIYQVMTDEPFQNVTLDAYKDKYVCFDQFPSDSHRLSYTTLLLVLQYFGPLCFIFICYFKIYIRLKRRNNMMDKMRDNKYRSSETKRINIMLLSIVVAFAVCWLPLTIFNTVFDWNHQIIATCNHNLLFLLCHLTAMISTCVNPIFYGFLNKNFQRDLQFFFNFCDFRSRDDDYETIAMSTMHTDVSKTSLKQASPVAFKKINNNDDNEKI
Outline: as §1

Human opioid (ORL1) = molecular target: T10, Human opioid (ORL1) (Homo sapiens, UniProt P41146); assay: Radioligand binding, human opioid ORL1 membranes, FlashPlate, [125I]-Nociceptin
T10 construct: purchased Perkin Elmer Biosignal
T10 sequence (P41146 whole entry): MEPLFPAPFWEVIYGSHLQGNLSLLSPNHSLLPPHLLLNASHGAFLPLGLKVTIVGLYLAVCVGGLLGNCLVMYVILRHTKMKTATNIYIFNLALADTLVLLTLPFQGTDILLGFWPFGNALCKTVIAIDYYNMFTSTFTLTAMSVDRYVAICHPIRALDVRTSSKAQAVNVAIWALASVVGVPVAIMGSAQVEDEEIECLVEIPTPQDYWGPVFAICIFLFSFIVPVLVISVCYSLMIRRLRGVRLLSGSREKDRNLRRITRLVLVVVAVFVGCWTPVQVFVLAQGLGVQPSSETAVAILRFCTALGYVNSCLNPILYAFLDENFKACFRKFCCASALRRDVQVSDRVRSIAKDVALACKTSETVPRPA
Outline: as §1

Mouse urotensin (mUR2) = molecular target: T11, Mouse urotensin (mUR2) (Mus musculus, UniProt Q8VIH9); assay: Radioligand binding, mouse urotensin mUR2 membranes, FlashPlate, [125I]-Urotensin II
T11 construct: purchased Perkin Elmer Biosignal
T11 sequence (Q8VIH9 1-385): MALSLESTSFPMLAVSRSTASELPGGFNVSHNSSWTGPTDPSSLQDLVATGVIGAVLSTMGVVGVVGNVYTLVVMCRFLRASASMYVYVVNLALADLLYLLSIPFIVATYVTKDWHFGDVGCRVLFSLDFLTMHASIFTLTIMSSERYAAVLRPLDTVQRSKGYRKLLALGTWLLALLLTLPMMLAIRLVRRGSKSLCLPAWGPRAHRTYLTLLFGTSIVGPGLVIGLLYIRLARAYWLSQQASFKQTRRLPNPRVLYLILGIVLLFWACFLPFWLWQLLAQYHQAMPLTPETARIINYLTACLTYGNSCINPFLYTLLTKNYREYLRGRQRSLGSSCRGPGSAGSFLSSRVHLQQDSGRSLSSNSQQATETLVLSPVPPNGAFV
Outline: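 Cloned mouse urotensin (mUR2) receptor membranes from Perkin Elmer Biosignal were immobilized in FlashPlate microplates using a proprietary coating. Each well got 19.5 μl buffer, then 0.5 μl of DMSO, reference ligand, or compound. Adding 5 μl of [125I]-Urotensin II, diluted to 5× final concentration in binding buffer, started binding. Plates were sealed with TopSeal-A and incubated 1 hour at room temperature in the dark. Wells were counted for 30 seconds each on a TopCount after a 60-second delay, and percentage inhibition was calculated.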

T1 sequence (P41143 whole entry): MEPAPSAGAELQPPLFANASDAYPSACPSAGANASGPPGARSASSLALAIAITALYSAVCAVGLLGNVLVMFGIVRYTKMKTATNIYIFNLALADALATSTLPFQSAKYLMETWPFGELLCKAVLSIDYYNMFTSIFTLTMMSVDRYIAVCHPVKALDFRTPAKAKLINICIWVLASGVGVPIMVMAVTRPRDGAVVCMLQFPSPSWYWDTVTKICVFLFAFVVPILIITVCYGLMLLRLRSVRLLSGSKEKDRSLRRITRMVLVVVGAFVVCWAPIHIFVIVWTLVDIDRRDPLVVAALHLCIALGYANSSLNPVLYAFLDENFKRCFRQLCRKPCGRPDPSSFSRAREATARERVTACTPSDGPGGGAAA

COCC1OC(OCc2ccc(Cl)cc2)C(NC(=O)CNC(=N)N)C(OCc2ccccc2)C1O (stereo not shown) [compound 194]
A1: inhibition of radioligand binding (Human δ-opioid (DOP); [3H]-Bremazocine, FlashPlate): − (“−” indicates less than 50% inhibition at 10 μM) | A2: inhibition of radioligand binding (Human κ-Opioid (KOP); [3H]-Diprenorphine, filtration): − (“−” indicates less than 50% inhibition at 10 μM) | A3: inhibition of radioligand binding (Human Melanocortin (MC3); [125I]-NDP-αMSH, FlashPlate): − (“−” indicates less than 50% inhibition at 10 μM) | A4: inhibition of radioligand binding (Human Melanocortin (MC4); [125I]-NDP-αMSH, FlashPlate): + (“+” indicates greater than 50% inhibition at 10 μM) | A5: inhibition of radioligand binding (Human melanocortin (MC5); [125I]-NDP-αMSH, FlashPlate): + (“+” indicates greater than 50% inhibition at 10 μM) | A6: inhibition of radioligand binding ([1]; [125I]-S36057, FlashPlate): − (“−” indicates less than 50% inhibition at 10 μM) | A7: inhibition of radioligand binding (Human μ-opioid (MOP); [3H]-Naloxone, FlashPlate): − (“−” indicates less than 50% inhibition at 10 μM) | A8: inhibition of radioligand binding (Human neurokinin (NK1); [125I]-Substance P, filtration): + (“+” indicates greater than 50% inhibition at 10 μM) | A9: inhibition of radioligand binding ([2]; [125I]-PYY, FlashPlate): − (“−” indicates less than 50% inhibition at 10 μM) | A10: inhibition of radioligand binding (Human opioid (ORL1); [125I]-Nociceptin, FlashPlate): − (“−” indicates less than 50% inhibition at 10 μM) | A11: inhibition of radioligand binding (Mouse urotensin (mUR2); [125I]-Urotensin II, FlashPlate): − (“−” indicates less than 50% inhibition at 10 μM)

CO[C@H]1[C@H](O)[C@@H](COCc2ccc(-c3ccccc3)cc2)OC(OCCc2ccccc2)[C@@H]1NC(=O)CNC(=N)N (stereo partly shown) [compound 109]
A1 radioligand binding, percentage inhibition (Human δ-opioid (DOP); [3H]-Bremazocine): − (“−” indicates less than 50% inhibition at 10 μM) | A2 radioligand binding, percentage inhibition (Human κ-Opioid (KOP); [3H]-Diprenorphine): − (“−” indicates less than 50% inhibition at 10 μM) | A3 radioligand binding, percentage inhibition (Human Melanocortin (MC3); [125I]-NDP-αMSH): + (“+” indicates greater than 50% inhibition at 10 μM) | A4 radioligand binding, percentage inhibition (Human Melanocortin (MC4); [125I]-NDP-αMSH): + (“+” indicates greater than 50% inhibition at 10 μM) | A5 radioligand binding, percentage inhibition (Human melanocortin (MC5); [125I]-NDP-αMSH): + (“+” indicates greater than 50% inhibition at 10 μM) | A6 radioligand binding, percentage inhibition ([1]; [125I]-S36057): − (“−” indicates less than 50% inhibition at 10 μM) | A7 radioligand binding, percentage inhibition (Human μ-opioid (MOP); [3H]-Naloxone): − (“−” indicates less than 50% inhibition at 10 μM) | A8 radioligand binding, percentage inhibition (Human neurokinin (NK1); [125I]-Substance P): − (“−” indicates less than 50% inhibition at 10 μM) | A9 radioligand binding, percentage inhibition ([2]; [125I]-PYY): − (“−” indicates less than 50% inhibition at 10 μM) | A10 radioligand binding, percentage inhibition (Human opioid (ORL1); [125I]-Nociceptin): − (“−” indicates less than 50% inhibition at 10 μM) | A11 radioligand binding, percentage inhibition (Mouse urotensin (mUR2); [125I]-Urotensin II): − (“−” indicates less than 50% inhibition at 10 μM)

CSC1OC(COCc2cccc(N)c2)C(O)C(OCc2ccccc2)C1NC(=O)Cc1ccccc1 (stereo not shown) [compound 330]
A1: inhibition of radioligand binding, human δ-opioid (DOP) (Human δ-opioid (DOP); [3H]-Bremazocine): − (“−” indicates less than 50% inhibition at 10 μM) | A2: inhibition of radioligand binding, human κ-opioid (KOP) (Human κ-Opioid (KOP); [3H]-Diprenorphine): − (“−” indicates less than 50% inhibition at 10 μM) | A3: inhibition of radioligand binding, human melanocortin (MC3) (Human Melanocortin (MC3); [125I]-NDP-αMSH): − (“−” indicates less than 50% inhibition at 10 μM) | A4: inhibition of radioligand binding, human melanocortin (MC4) (Human Melanocortin (MC4); [125I]-NDP-αMSH): − (“−” indicates less than 50% inhibition at 10 μM) | A5: inhibition of radioligand binding, human melanocortin (MC5) (Human melanocortin (MC5); [125I]-NDP-αMSH, 10 µM): − (“−” indicates less than 50% inhibition at 10 μM) | A6: inhibition of radioligand binding, human melanin-concentrating hormone (MCH1) ([1]; [125I]-S36057): − (“−” indicates less than 50% inhibition at 10 μM) | A7: inhibition of radioligand binding, human μ-opioid (MOP) (Human μ-opioid (MOP); [3H]-Naloxone): − (“−” indicates less than 50% inhibition at 10 μM) | A8: inhibition of radioligand binding, human neurokinin (NK1) (Human neurokinin (NK1); [125I]-Substance P): + (“+” indicates greater than 50% inhibition at 10 μM) | A9: inhibition of radioligand binding, human neuropeptide Y (NPY-Y1) ([2]; [125I]-PYY): − (“−” indicates less than 50% inhibition at 10 μM) | A10: inhibition of radioligand binding, human opioid (ORL1) (Human opioid (ORL1); [125I]-Nociceptin): − (“−” indicates less than 50% inhibition at 10 μM) | A11: inhibition of radioligand binding, mouse urotensin (mUR2) (Mouse urotensin (mUR2); [125I]-Urotensin II): − (“−” indicates less than 50% inhibition at 10 μM)

CO[C@H]1[C@H](O)[C@@H](COCc2ccc3ccccc3c2)OC(OCc2ccccc2)[C@@H]1NC(=O)CNC(=N)N (stereo partly shown) [compound 86]
A1 radioligand binding inhibition (Human δ-opioid (DOP); human δ-opioid (DOP) membranes): − (“−” indicates less than 50% inhibition at 10 μM) | A2 radioligand binding inhibition (Human κ-Opioid (KOP); human κ-opioid (KOP) membranes): − (“−” indicates less than 50% inhibition at 10 μM) | A3 radioligand binding inhibition (Human Melanocortin (MC3); human melanocortin MC3 membranes): + (“+” indicates greater than 50% inhibition at 10 μM) | A4 radioligand binding inhibition (Human Melanocortin (MC4); human melanocortin MC4 membranes): + (“+” indicates greater than 50% inhibition at 10 μM) | A5 radioligand binding inhibition (Human melanocortin (MC5); human melanocortin MC5 membranes): + (“+” indicates greater than 50% inhibition at 10 μM) | A6 radioligand binding inhibition ([1]; human MCH1 membranes): − (“−” indicates less than 50% inhibition at 10 μM) | A7 radioligand binding inhibition (Human μ-opioid (MOP); human μ-opioid (MOP) membranes): + (“+” indicates greater than 50% inhibition at 10 μM) | A8 radioligand binding inhibition (Human neurokinin (NK1); human neurokinin NK1 membranes): + (“+” indicates greater than 50% inhibition at 10 μM) | A9 radioligand binding inhibition ([2]; human NPY-Y1 membranes): − (“−” indicates less than 50% inhibition at 10 μM) | A10 radioligand binding inhibition (Human opioid (ORL1); human ORL1 membranes): − (“−” indicates less than 50% inhibition at 10 μM) | A11 radioligand binding inhibition (Mouse urotensin (mUR2); mouse urotensin mUR2 membranes): − (“−” indicates less than 50% inhibition at 10 μM)

CO[C@H]1[C@H](O)[C@@H](COCc2ccc3ccccc3c2)OC(OCc2cccc(O)c2)[C@@H]1NC(=O)CCCN (stereo partly shown) [compound 167]
A1 radioligand binding, percentage inhibition (Human δ-opioid (DOP); [3H]-Bremazocine): − (“−” indicates less than 50% inhibition at 10 μM) | A2 radioligand binding, percentage inhibition (Human κ-Opioid (KOP); [3H]-Diprenorphine): − (“−” indicates less than 50% inhibition at 10 μM) | A3 radioligand binding, percentage inhibition (Human Melanocortin (MC3); [125I]-NDP-αMSH): − (“−” indicates less than 50% inhibition at 10 μM) | A4 radioligand binding, percentage inhibition (Human Melanocortin (MC4); [125I]-NDP-αMSH): − (“−” indicates less than 50% inhibition at 10 μM) | A5 radioligand binding, percentage inhibition (Human melanocortin (MC5); [125I]-NDP-αMSH): − (“−” indicates less than 50% inhibition at 10 μM) | A6 radioligand binding, percentage inhibition ([1]; [125I]-S36057): − (“−” indicates less than 50% inhibition at 10 μM) | A7 radioligand binding, percentage inhibition (Human μ-opioid (MOP); [3H]-Naloxone): − (“−” indicates less than 50% inhibition at 10 μM) | A8 radioligand binding, percentage inhibition (Human neurokinin (NK1); [125I]-Substance P): + (“+” indicates greater than 50% inhibition at 10 μM) | A9 radioligand binding, percentage inhibition ([2]; [125I]-PYY): − (“−” indicates less than 50% inhibition at 10 μM) | A10 radioligand binding, percentage inhibition (Human opioid (ORL1); [125I]-Nociceptin): − (“−” indicates less than 50% inhibition at 10 μM) | A11 radioligand binding, percentage inhibition (Mouse urotensin (mUR2); [125I]-Urotensin II): − (“−” indicates less than 50% inhibition at 10 μM)

Source: patent US20080009418A1, “Selective Inhibitors” (Alchemia LTD., priority 2004, published 2008)
